± gives the expanded uncertainty stated by the source.
Legend:
[1] = 101 kPa, Liquid
[2] = refractive index (Na D-line) (dimensionless); details: 293.15 K; 101.33 kPa; Liquid; Standard Abbe refractometry
[3] = xn = mol fraction of the nth substance listed; details: 101 kPa, Liquid

| Structure (SMILES) | mass density ([1]; 293.15 K) [kg/m3] | mass density ([1]; 303.15 K) [kg/m3] | mass density ([1]; 313.15 K) [kg/m3] | mass density ([1]; 323.15 K) [kg/m3] | mass density ([1]; 333.15 K) [kg/m3] | mass density ([1]; 343.15 K) [kg/m3] | mass density ([1]; 353.15 K) [kg/m3] | refractive index [2] | mass density ([3]; 293.15 K, x1 = 1) [kg/m3] | mass density ([3]; 303.15 K, x1 = 1) [kg/m3] | mass density ([3]; 313.15 K, x1 = 1) [kg/m3] | mass density ([3]; 323.15 K, x1 = 1) [kg/m3] | mass density ([3]; 333.15 K, x1 = 1) [kg/m3] | mass density ([3]; 343.15 K, x1 = 1) [kg/m3] | other results |
| --- | --- | --- | --- | --- | --- | --- | --- | --- | --- | --- | --- | --- | --- | --- | --- |
| O=[N+]([O-])c1ccccc1 [nitrobenzene] | 1202.95 ± 2.3 | 1193.56 ± 2.2 | 1183.37 ± 2.1 | 1172.38 ± 2 | 1160.59 ± 1.9 | 1148 ± 1.9 | 1134.61 ± 1.8 | 1.55488 ± 0.00072 | – | – | – | – | – | – | – |
| c1ccccc1 [benzene] + O=[N+]([O-])c1ccccc1 | – | – | – | – | – | – | – | – | 877.8 ± 1.6 | 867.99 ± 1.7 | 857.87 ± 1.8 | 847.4 ± 1.9 | 836.59 ± 2 | 825.42 ± 2.1 | – |
| Cc1ccc(C)cc1 [1,4-dimethylbenzene] + O=[N+]([O-])c1ccccc1 | – | – | – | – | – | – | – | – | 861 ± 1.9 | 852.28 ± 2 | 843.58 ± 2.1 | 834.92 ± 2.1 | 826.27 ± 2.2 | 817.66 ± 2.3 | mass density ([3]; 353.15 K, x1 = 1): 809.07 ± 2.4 kg/m3 |
| CCc1ccccc1 [ethylbenzene] + O=[N+]([O-])c1ccccc1 | – | – | – | – | – | – | – | – | 867.82 ± 14 | 858.6 ± 14 | 851.85 ± 15 | 847.58 ± 15 | 845.79 ± 15 | 846.48 ± 15 | – |
| Cc1ccccc1C [1,2-dimethylbenzene] | 878.6 ± 1.6 | 872.25 ± 1.7 | 859.67 ± 1.8 | 840.84 ± 1.9 | – | – | – | 1.50573 ± 0.00072 | – | – | – | – | – | – | – |
| CCc1ccccc1 [ethylbenzene] | 867.82 ± 14 | 858.6 ± 14 | 851.85 ± 15 | – | – | – | – | 1.4962 ± 0.0008 | – | – | – | – | – | – | – |
| Cc1ccccc1C [1,2-dimethylbenzene] + O=[N+]([O-])c1ccccc1 | – | – | – | – | – | – | – | – | 878.6 ± 1.6 | 872.25 ± 1.7 | 859.67 ± 1.8 | 840.84 ± 1.9 | – | – | – |
| Cc1cccc(C)c1 [1,3-dimethylbenzene] + O=[N+]([O-])c1ccccc1 | – | – | – | – | – | – | – | – | 864.2 ± 2.5 | 855.76 ± 2.6 | 847.11 ± 2.6 | 838.27 ± 2.7 | 829.22 ± 2.7 | 819.97 ± 2.8 | mass density ([3]; 353.15 K, x1 = 1): 810.51 ± 2.9 kg/m3 |
| Cc1ccccc1 [toluene] | 866.75 ± 2.5 | 857.53 ± 2.6 | 848.25 ± 2.6 | 838.9 ± 2.7 | 829.5 ± 2.7 | 820.03 ± 2.8 | 810.5 ± 2.9 | 1.4965 ± 0.0008 | – | – | – | – | – | – | – |
| c1ccccc1 [benzene] | 877.8 ± 1.6 | 867.99 ± 1.7 | 857.87 ± 1.8 | 847.4 ± 1.9 | 836.59 ± 2 | 825.42 ± 2.1 | – | 1.5009 ± 0.0007 | – | – | – | – | – | – | – |
| C=Cc1ccccc1 [styrene] | 906 ± 1.4 | 896.44 ± 1.5 | 886.88 ± 1.6 | 877.32 ± 1.6 | 867.76 ± 1.7 | 858.2 ± 1.8 | 848.64 ± 1.9 | 1.546 ± 0.0007 | – | – | – | – | – | – | – |
| O=[N+]([O-])c1ccccc1 [nitrobenzene] + C=Cc1ccccc1 | – | – | – | – | – | – | – | – | – | – | – | – | – | – | mass density ([3]; 293.15 K, x2 = 0): 1202.95 ± 2.3 kg/m3; mass density ([3]; 303.15 K, x2 = 0): 1193.56 ± 2.2 kg/m3; mass density ([3]; 313.15 K, x2 = 0): 1183.37 ± 2.1 kg/m3; mass density ([3]; 323.15 K, x2 = 0): 1172.38 ± 2 kg/m3; mass density ([3]; 333.15 K, x2 = 0): 1160.59 ± 1.9 kg/m3; mass density ([3]; 343.15 K, x2 = 0): 1148 ± 1.9 kg/m3; mass density ([3]; 353.15 K, x2 = 0): 1134.61 ± 1.8 kg/m3 |
| Cc1ccc(C)cc1 [1,4-dimethylbenzene] | 861 ± 1.9 | 852.28 ± 2 | 843.58 ± 2.1 | 834.92 ± 2.1 | 826.27 ± 2.2 | 817.66 ± 2.3 | 809.07 ± 2.4 | 1.49577 ± 0.00075 | – | – | – | – | – | – | – |
| Cc1ccccc1 [toluene] + O=[N+]([O-])c1ccccc1 | – | – | – | – | – | – | – | – | 866.75 ± 2.5 | 857.53 ± 2.6 | 848.25 ± 2.6 | 838.9 ± 2.7 | 829.5 ± 2.7 | 820.03 ± 2.8 | mass density ([3]; 353.15 K, x1 = 1): 810.5 ± 2.9 kg/m3 |
| Cc1cccc(C)c1 [1,3-dimethylbenzene] | 864.2 ± 2.5 | 855.76 ± 2.6 | 847.11 ± 2.6 | 838.27 ± 2.7 | 829.22 ± 2.7 | 819.97 ± 2.8 | 810.51 ± 2.9 | 1.49735 ± 0.00082 | – | – | – | – | – | – | – |
